Paper PMC10740432, “The GDP-Mannose Dehydrogenase of Pseudomonas aeruginosa: An Old and New Target to Fight against Antibiotics Resistance of Mucoid Strains” (Antibiotics, 2023)

Experiments:
[1] = molecular target: T1, GDP-mannose dehydrogenase (GMD) (Pseudomonas aeruginosa, UniProt P11759); assay: inhibition of NADH formation at […] nm; assay type: biochemical; details: read-out: Percentage of GMD Inhibition at the Final Concentration of
T1 construct: gene algD; native full-length protein purified from mucoid P. aeruginosa; 48 kDa polypeptide; 59 kDa apparent on gel filtration, monomer/active dimer; no tag
T1 sequence (P11759 whole entry): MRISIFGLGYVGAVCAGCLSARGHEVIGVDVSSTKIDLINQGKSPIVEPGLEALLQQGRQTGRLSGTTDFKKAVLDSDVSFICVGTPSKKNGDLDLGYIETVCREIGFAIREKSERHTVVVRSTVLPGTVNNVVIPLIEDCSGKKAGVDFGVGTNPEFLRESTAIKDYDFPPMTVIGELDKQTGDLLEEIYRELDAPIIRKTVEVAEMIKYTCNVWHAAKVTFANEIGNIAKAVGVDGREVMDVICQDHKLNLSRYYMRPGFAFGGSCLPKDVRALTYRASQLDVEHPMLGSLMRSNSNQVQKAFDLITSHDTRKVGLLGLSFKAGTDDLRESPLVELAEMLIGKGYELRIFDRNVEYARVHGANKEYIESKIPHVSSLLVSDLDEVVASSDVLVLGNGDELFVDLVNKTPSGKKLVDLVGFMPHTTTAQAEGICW

[2] = test system: Nc1nc2c(ncn2[C@@H]2O[C@H](COP(=O)(O)OP(=O)(O)O[C@H]3O[C@H](CO)[C@@H](O)[C@H](O)[C@@H]3O)[C@@H](O)[C@H]2O)c(=O)[nH]1; assay: purified protein; details: strong-affinity site of two (negative cooperativity), strains NK 125502 and A22 alg^+, 1 mM NAD+, 10 mM MgSO4, 0.2 M glycyl-glycine pH 8.5, 37 °C
[3] = test system: NC(=O)c1ccc[n+]([C@@H]2O[C@H](COP(=O)(O)OP(=O)(O)OC[C@H]3O[C@@H](n4cnc5c(N)ncnc54)[C@H](O)[C@@H]3O)[C@@H](O)[C@H]2O)c1; assay: purified protein; details: co-substrate GDP-mannose, 10 mM MgSO4, 0.2 M glycyl-glycine pH 8.5, 37 °C, strain not stated, varied: cofactor
[4] = molecular target: T1, GDP-mannose dehydrogenase (GMD); assay: NADH formation at […] nm, Dixon plot; assay type: biochemical

Compound | inhibition at 500 µM [1] [%] | other results
C#CC(OC(C)=O)[C@H]1O[C@H](OC(=O)NS(=O)(=O)OC[C@H]2O[C@@H](n3cnc4c(=O)[nH]c(NC(C)=O)nc43)[C@@H]3OC(C)(C)O[C@@H]32)[C@@H](OC(C)=O)[C@@H](OC(C)=O)[C@@H]1OC(C)=O (stereo partly drawn) [AM5′ASG, alcynyl-6-tetra-O-acetyl-mannose-carbonyl-amino-sulfonyl-guanosine] | 90 ± 3 | –
NC[C@H]1O[C@@H](n2cnc3c(=O)[nH]c(N)nc32)[C@H](O)[C@@H]1O [5′AG, 5′-amino-5′-deoxy-guanosine] | 64 ± 3 | –
GDP-mannose dehydrogenase (GMD) (Pseudomonas aeruginosa PAO1) | – | Km [2]: 13 µM; Km [3]: 360 µM
Nc1nc2c(ncn2[C@@H]2O[C@H](CNCCCO)[C@@H](O)[C@H]2O)c(=O)[nH]1 [5′APG, 5′-(3-hydroxypropyl)-amino-5′-guanosine] | 72 ± 2 | –
Nc1nc2c(ncn2[C@@H]2O[C@H](CO)[C@@H](O)[C@H]2O)c(=O)[nH]1 [guanosine] | – | Ki [4]: ~40 µM
